# Assay results from patent US20260287592A1, “ANALYSIS METHOD AND ANALYSIS SYSTEM” (priority 2023, published 2026).
# System: HER3
# Details: Type3: SN-38 0.01 μM, gefitinib 0.00 μM; SKBR-3 cells, 24 hours; anti-HER3 staining
compound,measurement,value
"CCc1c2c(nc3ccc(O)cc13)-c1cc3c(c(=O)n1C2)COC(=O)[C@]3(O)CC [SN-38, 7-ethyl-10-hydroxycamptothecin]",AVERAGE VALUE OF 10 WELLS FOR NUMBER OF BRIGHT SPOTS PER CELL,12
